In patent US12630532B2, “Indole-substituted quinolines and their combination with Plk1 inhibitors for the treatment of cancer” (UNIVERSITY OF KENTUCKY RESEARCH FOUNDATION, priority 2021, dated 2026):

What was measured:
[1] = Solubility comparison; assay type: physicochemical; details: relative comparison
[2] = system: mitochondrial ETC complex I; experiment: Mitochondrial ETC complex activity measurements using PMP-permeabilized cells; assay type: cell-based
Protocol: Mitochondrial ETC complex activity measurements were taken using the Agilent Seahorse Assay with XF PMP (Agilent, Santa Clara, CA) following manufacturer's instructions. Adherent monolayer cells were gently washed with mitochondrial assay solution (MAS) (220 mM mannitol, 70 mM sucrose, 10 mM KH2PO4, 5 mM MgCl2, 2 mM HEPES, 1 mM EGTA, and 0.2% (w/v) fatty acid free BSA) and cell growth media was replaced with MAS supplemented with 4 mM adenosine diphosphate (ADP), 10 mM pyruvate, and 1 nM PMP. Following calibration, the assay was immediately performed by measuring baseline with two cycles of 0.5 min mixing, 0.5 min waiting, and 2 min measuring. After baseline measurements, sequential injections of DMSO, compounds of interest or 2 μM rotenone, 10 mM succinate, 2 μM antimycin A, and a combination of 10 mM ascorbate and 100 μM TMPD were also performed with each followed by two cycles of 0.5 min mixing, 0.5 min waiting, and 2 min measuring. Data were then normalized to cell counts using the Biotek Cytation 1 (BioTek Instruments, Winooski, VT, USA).

[3] = system: mitochondrial ETC (electron transport chain); experiment: Seahorse assay (OCR) in Beas-2B cells; assay type: cell-based
Protocol: (§1) Seahorse assays were carried out following a published procedure (25). Briefly, 2.5×10^4 cells in 80 μL of medium were seeded in XF96 Cell Culture microplate for all experiments. On the next day, cell culture media were replaced with Seahorse XF modified media. Cells were treated with 1 μM of oligomycin A, 1.0 μM FCCP and mixture of 1.0 μM of rotenone and 1.0 μM of antimycin A in standard mitochondrial stress test conditions. To determine the uncoupler effects, FCCP was replaced with an equal volume of DMSO, or a compound to be tested in DMSO solution.

[4] = system: LS174T colon cancer cell xenografts; experiment: In vivo antineoplastic activity and gross toxicity in LS174T xenografts
Protocol: Mouse studies were carried out with approval from the Institutional Animal Care and Use Committee of the University of Kentucky (2020-3531). All methods were performed in accordance with the relevant guidelines and regulations according to protocols. […] After tumors were established, mice were randomized according to tumor volume and divided into groups for treatments (five mice in each group, two tumors on each mouse).
The in vivo evaluation of ISQ-1 and BI2536 followed the approved protocol. After tumors were established, ISQ-1 was formulated in a mixture of Tween-80 (5%), DMSO (10%), PEG400 (25%) and PBS (60%) and was intraperitoneally administered to the ISQ-1 group at a daily dose of 20 mg/kg mouse body weight. The first day of treatment was set as day 0. At days 0, 4, and 7, BI2536 dissolved in 0.1 N HCl and then diluted 5-fold using 0.9% NaCl was given via gavage to the B12536 group. Mice in combination therapy group were treated with both ISQ-1 and BI2536 following aforementioned dosing schedules. At day 11 treatment was ceased and mice were sacrificed. Tumors and mouse weights were measured, and tumor volumes were calculated as Length×width^2/2.
Major biological assays were performed at least twice. Data were shown as mean SEM. For the mice study, five mice with two tumors on the lower flanks of each mouse were used in each treatment group. Sizes of the two tumors from each mouse were averaged, standardized by the tumor size on day 0, and log-transformed. ANOVA with Tukey's HSD test was used to compare the tumor size at the end of the study (day 11) between the combination therapy of ISQ-1 and B12536 and each single compound as well as the control. The equal variance assumption of ANOVA was assessed by Bartlett's test. All statistical studies were overseen in collaboration with a statistician in the University of Kentucky's Markey Cancer Center.

[5] = system: mitochondrial ETC (electron transport chain); experiment: Seahorse assay (OCR) in LS174T cells; assay type: cell-based
Protocol: as §1

[6] = system: AMPK; experiment: AMPK signaling (western blotting) in Beas-2B cells; assay type: cell-based; details: compared with CRC cells
Protocol: (§2) Western blotting were performed according to previous procedures (25). Cells were split into 12-well plates. After 24 hours, compounds at indicated final concentrations were added to each well for another 24 hours unless otherwise noted. DMSO was used as a control. Cells were lysed in the appropriate volume of lysis buffer: 50 mM HEPES, 100 mM NaCl, 2 mM EDTA, 1% (v/v) glycerol, 50 mM NaF, 1 mM Na3VO4, 1% (v/v) Triton X-100, with protease inhibitors. Cell lysates were centrifuged, and supernatants were mixed with 6× protein loading buffer and boiled. The obtained samples were analyzed with standard western blotting methods with indicated antibodies.

[7] = system: AMPK; experiment: AMPK activation (western blotting, pAMPK/pACC) in LS174T cells; assay type: cell-based
Protocol: as §2

[8] = system: LS174T cells; experiment: Cell proliferation inhibition assay (5 days, cell counting); assay type: cell-based
Protocol: Cell proliferation inhibition assays were done following a previous report (32). Cancer cells were seeded into 24-well plates at a density of 20,000 cells per well in 1 mL of culture medium and were cultured overnight at 37° C. Compounds and the vehicle control (DMSO) were added to the cells. After 5 days, the medium was removed, and 100 μL of trypsin was added. The cells were resuspended in phosphate-buffered saline (PBS) and were counted by Vi-CELL XR 2.03 (Beckman Coulter, Inc. USA). The ratio R of the number of viable cells in the compound treatment group to the number of viable cells in DMSO treatment group was taken as relative growth, and the percentage growth inhibition was calculated as (1−R)*100.

[9] = system: Wnt signaling target genes c-Myc and axin2; experiment: Western blotting of Wnt signaling target genes in LS174T cells; assay type: cell-based; details: 24 hours
Protocol: as §2

[10] = system: Plk1; experiment: Western blotting of cell signaling pathways in LS174T cells; assay type: cell-based; details: LS174T colon cancer cells, 24 hours
Protocol: as §2

## CN(C)c1ccc2cc(-c3cn(C)c4ccccc34)c(N)nc2c1 [ISQ-1, N^7,N^7-Dimethyl-3-(1-methyl-1H-indol-3-yl)quinoline-2,7-diamine]
[1]
  solubility: better than that of ISQ-7
[2]; pyruvate substrate
  ETC complex I inhibition (pyruvate/NADH-linked respiration): inhibited complex I
[2]; succinate added
  inhibition of complexes II, III, or IV (respiration after succinate): ruled out the possibility that ISQ-1 inhibited complexes II, III, or IV
[3]
  ETC complex V inhibition (oligomycin replaced with compound): did not inhibit ETC complex V
  uncoupler effect (FCCP replaced with compound): no uncouplers
[4]; nude mice, ISQ-1 20 mg/kg daily i.p., BI2536 30 mg/kg twice a week by gavage, day 11
  tumor growth of LS174T xenografts: inhibited tumor growth but did not induce tumor regression
[4]; same dosing as efficacy study
  gross toxicities on the basis of mouse weight measurements: No gross toxicities
[5]
  ETC complex V inhibition (oligomycin replaced with compound): did not inhibit ETC complex V
[6]
  AMPK signaling activation: less effective in activating AMPK signaling
[7]
  AMPK activation: activated AMPK in a dose-dependent manner
[8]; 500 nM
  percentage inhibition of LS174T cell proliferation at 500 nM, compared among ISQs (FIG. 2B): more active
[8]; Homo sapiens, LS174T, 120 h, 62 nM, 5 days
  inhibition at 0.062 µM: 16 ± 2%
[8]; Homo sapiens, LS174T, 120 h, 125 nM, 5 days
  inhibition at 0.125 µM: 22 ± 5%
[8]; Homo sapiens, LS174T, 120 h, 250 nM, 5 days
  inhibition at 0.25 µM: 38 ± 2.2%
[8]; Homo sapiens, LS174T, 120 h, 500 nM, 5 days
  inhibition at 0.5 µM: 91 ± 4.3%
[8]; Homo sapiens, LS174T, read-out: Inhibition % on LS174T cells Proliferation 0.3 uM Inhib. %
  inhibition at 0.3 µM: 83.9%
[8]; Homo sapiens, LS174T, read-out: Inhibition % on LS174T cells Proliferation 1 uM Inhib. %
  inhibition at 1 µM: 92.7%
[8]; Homo sapiens, LS174T, read-out: Inhibition % on LS174T cells Proliferation 3 uM Inhib. %
  inhibition at 3 µM: 99.3%
[8]; LS174T, 5 days (FIG. 1B)
  inhibited in vitro cell growth: nanomolar concentrations
[9]
  effect on Wnt signaling target genes c-Myc and axin2: inhibited
[10]
  Plk1 expression upon drug treatment: induced
